Values joined by “and” are separate entries in the source; they are usually repeats but may differ in a detail not shown here. Equal entries are not always repeated.
What was measured:
Format in all cases: in vivo, human
[1] = GFR assay: the present compound in urine and sera by enzyme immunoassay, clearance (Example 8)
Method: (§1) Enzyme immunoassay was performed using the antibody prepared in Example 6. First, 50 μl of 2-amino-3-[2-(α-D-mannopyranosyl)indole-3-yl]propionic acid-BSA conjugate solution (20 μg/ml 0.1M carbonate buffer, pH9.5) was dispensed into a 96-well microtiter plate (NUNC. Corp.) and left to stand at 4° C. overnight. After washing the plate three times with PBS, 250 μl of 1% BSA/PBS solution was dispensed into the plate and left to stand at room temperature for 1 hour. Then, the plate was washed three times with PBS to be used as a reaction plate. Next, 50 μl of a test sample diluted with 0.1M phosphate buffer (pH 7.4) supplemented with varied concentrations of 2-amino-3-[2-(α-D-mannopyranosyl)indole-3-yl]propionic acid/0.1%BSA or 0.1M phosphate buffer supplemented with 0.1% BSA (pH7.4) was dispensed into the reaction plate into which 50 μl of the monoclonal antibody prepared in Example 6 (10 ng/ml, 0.1M phosphate buffer solution supplemented with 0.1% BSA, pH7.4) was added while stirring. The mixture was allowed to react at room temperature for 3 hours. Then, after the reaction was completed, the plate was washed five times with PBS containing 0.05% Tween 20, and then 50 μl of POD labeled-anti-mouse immunoglobulins-rabbit IgG (DAKO) was added to the plate for reaction at room temperature for 1 hour. After the reaction, the plate was washed five times with PBS containing 0.05% Tween 20, added with 50 μl of MCDP/50 mM citrate buffer solution (pH5.0), and the mixture was allowed to react at room temperature for 30 minutes. Finally, 50 μl of a reaction stopper (ethyl diethyldithiocarbamate) was added to the plate, and absorbance was then determined at 660 nm by a microplate reader. The calibration curve is shown in FIG. 5 in which the concentration of 2-amino-3-[2-(α-D-mannopyranosyl)indole-3-yl]propionic acid was indicated as a concentration of single compound.
Eighteen patients with non-renal disease were assayed for the levels of 2-amino-3-[2-(α-mannopyranosyl)indole-3-yl]propionic acid in their urine and sera as described in Example 7. Urine samples stored for 24 hours were used. Volumes of those samples were determined and then partially stored at −80° C. until assay. Upon use, the frozen urine samples were thawed at 37° C. and kept warm. Subsequently, after sufficient stirring and mixing, the samples were centrifuged at 3000 rpm for 10 minutes to remove impurities. The resultant supernatants were used as samples. Serum samples were collected from the patients' blood, left to stand at room temperature for 30 minutes for coagulation, and centrifuged to collect sera which were stored at −80° C. until use.
Clearance View=(level in urine×urine volume)/(24×60×serum level)

[2] = Assay of excreted amount in urine: the present compound by enzyme immunoassay (Example 9); conditions: healthy persons
Method: as §1
Healthy persons (male and female, from newborn to 90 year-old) were assayed for levels of 2-amino-3-[2-(α-mannopyranosyl)indole-3-yl]propionic acid in their urine as described in Example 7, to evaluate the usefulness of the method of the present invention for measurement of renal functions. Urine samples stored for 24 hours were pooled, their volumes were determined, and then partially stored at −80° C. until use. Upon use, the frozen urine samples were thawed and kept warm at 37° C. Subsequently, after sufficient stirring and mixing, the samples were centrifuged at 3000 rpm for 10 minutes to remove impurities. The resultant supernatants were used as samples. As a comparative example, creatinine levels in the same test samples were assayed.

[3] = Quantitation of the compound in serum by high performance liquid chromatography (Examples 3, 4); conditions: for level in serum: healthy persons, newborns to 90-year-old
Method: Standard solution of 2-amino-3-[2-(α-mannopyranosyl)indole-3-yl]propionic acid obtained in Example 1 above was prepared. Next, 350 μl of the standard solution was added to 500 μl of 0.1N hydrochloric acid containing 1% vitamin C, mixed with 50 μl of 40 μM N-methyl serotonin as an internal standard then 100 μl of 60% perchloric acid, and centrifuged at 3000 rpm at 4° C. The supernatant was filtered through a 0.22 μm filter to obtain a filtrate.
The filtrate was subjected to high performance liquid chromatography under the following conditions:
Column: Finepak SILC18-T5 (4 mm×25 cm, JASCO Corporation)
Development solvent: Mixed solvent of acetonitrile and buffer (70 mM citric acid: 60 mM disodium phosphate=1;1, v/v, pH3.5)
Detection: Fluorescence, excited at 302 nm, determined at 350 nm
Sera from healthy persons and patients with renal disease were quantitated for the compound of the present invention. First, bloods were collected from the subjects and left to stand at room temperature for 30 minutes for coagulation. Next, the sera were collected by centrifugation at 3000 rpm for 10 minutes and stored at −80° C. until use. Sera from healthy persons (males and females, newborns to 90-year-old persons) were quantitated for the compound of the present invention in the same manner as that of Example 2 except that sera were used instead of the standard solution. […] No difference was detected between ages or between sexes.
Next, sera from patients with renal disease (17 males, average age of 53.9; 13 females, average age of 46.4) were quantitated for the compound of the present invention. […] As shown in this figure, the average value of 856 ng/ml (SD 247) was obtained for samples from male patients while 854 ng/ml (SD 305) for samples from female patients.
Sera and cerebrospinal fluids from healthy persons and patients with central nervous disease were quantitated for the compound of the present invention. Both sera and cerebrospinal fluids were collected from 22 healthy persons, one patient with spinocerebellar ataxia and one patient with metastatic brain tumor, and quantitated for the compound of the present invention in the sera and the cerebrospinal fluids in the same manner as that of Example 2 except that sera or cerebrospinal fluids were used instead of the standard solution. […] The result of quantitation of the compound in cerebrospinal fluids is shown in FIG. 3 in which ●, □ and Δ show the healthy persons, the patient with spinocerebellar ataxia, and the patient with metastatic brain tumor, respectively. As shown in this figure, the level of the compound in cerebrospinal fluids from healthy persons was determined to be 130.4 ng/ml (SD 29.1). The level of the compound in cerebrospinal fluid from the patient with spinocerebellar ataxia was determined to be 399.4 ng/ml. The level of the compound in cerebrospinal fluid from the patient with metastatic brain tumor was determined to be 822.6 ng/ml.

For NC(Cc1c([C@H]2O[C@H](CO)[C@@H](O)[C@H](O)[C@@H]2O)[nH]c2ccccc12)C(=O)O (stereo partly drawn) [the present compound, 2-amino-3-[2-(α-mannopyranosyl)indole-3-yl]propionic acid], the “clearance (ml/min) the present compound” value ([1]; Average of 18 subjects) was 68.40 mL/min, the “the present compound in serum” value ([1]; Average of 18 subjects) was 0.24 nmol/mL and the “the present compound in urine” value ([1]; Average of 18 subjects) was 14.87 nmol/mL. For the same compound, the “the present compound in serum” value ([1]; individual subjects 1-18, patients with non-renal disease) was 0.240 nmol/ml (2×) and 0.193 nmol/ml (3×) and 0.166 nmol/ml and 0.280 nmol/ml and 0.200 nmol/ml and 0.319 nmol/ml (3×) and 0.279 nmol/ml (2×) and 0.186 nmol/ml and 0.309 nmol/ml and 0.213 nmol/ml and 0.226 nmol/ml and 0.159 nmol/ml, the “the present compound in urine” value ([1]; individual subjects 1-18, urine stored for 24 hours) was 11.677 nmol/mL and 7.195 nmol/mL and 4.242 nmol/mL and 14.862 nmol/mL and 19.188 nmol/mL and 7.595 nmol/mL and 10.649 nmol/mL and 14.349 nmol/mL and 13.645 nmol/mL and 27.103 nmol/mL and 16.348 nmol/mL and 12.726 nmol/mL and 11.931 nmol/mL and 26.935 nmol/mL and 15.040 nmol/mL and 12.989 nmol/mL and 33.653 nmol/mL and 7.573 nmol/mL and the “clearance (ml/min) the present compound” value ([1]; individual subjects 1-18, (level in urine×urine volume)/(24×60×serum level)) was 64.2 mL/min and 54.2 mL/min and 58.1 mL/min and 80.8 mL/min and 64.3 mL/min and 53.0 mL/min and 72.3 mL/min and 60.7 mL/min and 91.7 mL/min and 56.1 mL/min and 89.1 mL/min and 61.9 mL/min and 89.2 mL/min and 77.6 mL/min and 67.7 mL/min and 65.3 mL/min and 52.8 mL/min. For the same compound, the “excreted amount in urine, average” value ([2]; female, age 0-10) was 4111 µg/day, the “excreted amount in urine, average” value ([2]; female, age 0-90) was 4507 µg/day and the “excreted amount in urine, average” value ([2]; female, age 10-30) was 4520 µg/day. For the same compound, the “excreted amount in urine, average” value ([2]; female, age 30-50) was 4824 µg/day, the “excreted amount in urine, average” value ([2]; female, age 50-70) was 4412 µg/day and the “excreted amount in urine, average” value ([2]; female, age 70-90) was 4666 µg/day. For the same compound, the “average excretion amount per day” value ([2]; male and female, all ages) was 4.5 mg/day, the “excreted amount in urine, average” value ([2]; male, age 0-10) was 4095 µg/day and the “excreted amount in urine, average” value ([2]; male, age 0-90) was 4488 µg/day. The “excreted amount in urine, average” value ([2]; male, age 10-30) was 4581 µg/day, the “excreted amount in urine, average” value ([2]; male, age 30-50) was 4498 µg/day and the “excreted amount in urine, average” value ([2]; male, age 50-70) was 4647 µg/day. The “excreted amount in urine, average” value ([2]; male, age 70-90) was 4622 µg/day, the “level in serum, average value” ([3]; female patients with renal disease (13 females), SD 305) was 854 ng/mL and the “range of levels in sera from 99% of subjects” value ([3]; healthy persons (n=50)) was 52 to 99 ng/mL. The level in serum ([3]; females, SD 12.6) was 74.5 ng/mL, the level in serum ([3]; males, SD 10.3) was 76.3 ng/mL and the “level in serum, average value” ([3]; male patients with renal disease (17 males), SD 247) was 856 ng/mL. The “range of levels in sera from 99% of subjects” value ([3]; patients with renal dysfunction (n=30)) was 307 to 1403 ng/mL and the level in sera ([3]; sera of Example 4 subjects, SD 13.8) was 69.9 ng/mL.

Reference: patent US6610502B1, “Compound 2-amino-3-[2-(α-mannopyranosyl)indol-3-yl]propionic acid, process for preparing the same, and method for inspecting function of living body with the novel compound” (Kyowa Medex Co., Ltd., priority 1997, dated 2003)
